Assays:
Cytochrome P450 2J2 [1] = target: T1, Cytochrome P450 2J2 (Homo sapiens, UniProt P51589); assay: Drug metabolism assessed as recombinant CYP2J2 (unknown origin)-mediated compound formation treated with AMG 853 at 10 uM after 30 mins by LC-MS/MS analysis; format: ADME; conditions: recombinant enzyme, 0.5 h
T1 sequence (P51589 whole entry): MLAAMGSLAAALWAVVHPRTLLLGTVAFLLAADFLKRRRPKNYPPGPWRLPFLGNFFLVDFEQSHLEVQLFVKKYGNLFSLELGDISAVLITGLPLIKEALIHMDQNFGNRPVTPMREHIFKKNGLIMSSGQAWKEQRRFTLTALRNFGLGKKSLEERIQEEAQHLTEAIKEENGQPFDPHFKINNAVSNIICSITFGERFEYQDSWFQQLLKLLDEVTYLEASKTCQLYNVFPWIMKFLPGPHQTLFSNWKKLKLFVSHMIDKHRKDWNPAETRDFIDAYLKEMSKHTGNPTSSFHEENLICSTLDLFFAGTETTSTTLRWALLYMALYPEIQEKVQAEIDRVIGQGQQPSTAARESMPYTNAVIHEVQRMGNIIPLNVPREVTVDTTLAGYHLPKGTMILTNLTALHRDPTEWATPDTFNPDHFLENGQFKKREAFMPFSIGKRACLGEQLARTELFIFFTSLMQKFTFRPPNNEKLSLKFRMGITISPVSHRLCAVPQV

Cytochrome P450 2C8 [2] = target: T2, Cytochrome P450 2C8 (Homo sapiens, UniProt P10632); assay: Drug metabolism assessed as recombinant CYP2C8 (unknown origin)-mediated compound formation measured per nmol protein treated with AMG 853 after 15 mins by LC-MS/MS analysis; format: ADME; conditions: recombinant enzyme, 0.25 h
T2 sequence (P10632 whole entry): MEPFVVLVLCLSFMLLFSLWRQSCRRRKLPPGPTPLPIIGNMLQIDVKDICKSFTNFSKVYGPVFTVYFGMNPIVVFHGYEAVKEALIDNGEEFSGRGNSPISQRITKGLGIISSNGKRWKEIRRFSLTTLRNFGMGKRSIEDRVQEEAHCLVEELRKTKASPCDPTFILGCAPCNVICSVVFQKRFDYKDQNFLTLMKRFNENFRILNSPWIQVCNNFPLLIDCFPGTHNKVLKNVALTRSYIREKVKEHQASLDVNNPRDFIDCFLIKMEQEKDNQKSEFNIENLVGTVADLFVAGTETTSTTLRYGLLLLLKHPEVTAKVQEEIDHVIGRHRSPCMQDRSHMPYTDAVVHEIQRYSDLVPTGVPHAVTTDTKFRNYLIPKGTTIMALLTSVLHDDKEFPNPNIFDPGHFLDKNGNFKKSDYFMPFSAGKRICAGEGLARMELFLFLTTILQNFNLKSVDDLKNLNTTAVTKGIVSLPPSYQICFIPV

Cytochrome P450 3A7 [3] = target: T3, Cytochrome P450 3A7 (Homo sapiens, UniProt P24462); assay: Drug metabolism assessed as recombinant CYP3A7 (unknown origin)-mediated compound formation measured per nmol protein treated with AMG 853 after 15 mins by LC-MS/MS analysis; format: ADME; conditions: recombinant enzyme, 0.25 h
T3 sequence (P24462 whole entry): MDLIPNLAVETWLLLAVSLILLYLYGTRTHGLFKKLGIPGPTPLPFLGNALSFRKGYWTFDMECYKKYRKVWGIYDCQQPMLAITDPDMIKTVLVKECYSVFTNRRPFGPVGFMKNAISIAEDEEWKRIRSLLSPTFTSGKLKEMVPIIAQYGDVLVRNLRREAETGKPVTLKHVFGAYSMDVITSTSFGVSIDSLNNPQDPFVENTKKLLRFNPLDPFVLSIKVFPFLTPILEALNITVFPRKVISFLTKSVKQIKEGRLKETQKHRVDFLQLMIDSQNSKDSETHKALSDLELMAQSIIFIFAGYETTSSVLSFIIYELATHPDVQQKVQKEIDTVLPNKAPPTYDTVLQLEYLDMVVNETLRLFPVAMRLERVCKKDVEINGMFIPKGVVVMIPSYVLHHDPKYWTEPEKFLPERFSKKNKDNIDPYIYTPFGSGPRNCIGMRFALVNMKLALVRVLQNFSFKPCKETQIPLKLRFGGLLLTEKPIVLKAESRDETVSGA

Cytochrome P450 3A5 [4] = target: T4, Cytochrome P450 3A5 (Homo sapiens, UniProt P20815); assay: Drug metabolism assessed as recombinant CYP3A5 (unknown origin)-mediated compound formation treated with AMG 853 at 10 uM after 30 mins by LC-MS/MS analysis; format: ADME; conditions: recombinant enzyme, 0.5 h
T4 sequence (P20815 whole entry): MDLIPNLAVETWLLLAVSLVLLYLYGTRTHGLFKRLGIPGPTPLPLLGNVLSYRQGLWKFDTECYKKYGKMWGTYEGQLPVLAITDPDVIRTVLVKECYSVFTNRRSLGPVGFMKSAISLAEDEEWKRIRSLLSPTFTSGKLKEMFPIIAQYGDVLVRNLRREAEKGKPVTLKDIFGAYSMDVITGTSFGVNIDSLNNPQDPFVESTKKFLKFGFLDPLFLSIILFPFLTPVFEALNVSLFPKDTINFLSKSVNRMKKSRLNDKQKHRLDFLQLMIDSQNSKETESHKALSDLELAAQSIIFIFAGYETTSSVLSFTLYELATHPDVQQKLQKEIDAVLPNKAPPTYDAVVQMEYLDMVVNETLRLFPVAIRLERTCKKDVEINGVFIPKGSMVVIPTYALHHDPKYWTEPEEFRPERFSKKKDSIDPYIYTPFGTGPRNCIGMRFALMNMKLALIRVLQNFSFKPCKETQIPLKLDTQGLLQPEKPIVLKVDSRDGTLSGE

Cytochrome P450 3A5 [5] = target: T4, Cytochrome P450 3A5; assay: Drug metabolism assessed as recombinant CYP3A5 (unknown origin)-mediated compound formation measured per nmol protein treated with AMG 853 after 15 mins by LC-MS/MS analysis; format: ADME; conditions: recombinant enzyme, 0.25 h
[6] = Drug metabolism in human liver microsomes assessed as […]-mediated compound formation treated with AMG 853 after 15 mins by LC-MS/MS analysis; format: ADME; conditions: 0.25 h
[7] = Drug metabolism in human liver microsomes assessed as CYP3A5*1/*1-mediated compound formation treated with AMG 853 after 15 mins by LC-MS/MS analysis; format: ADME; conditions: 0.25 h
Cytochrome P450 2J2 [8] = target: T1, Cytochrome P450 2J2; assay: Drug metabolism assessed as recombinant CYP2J2 (unknown origin)-mediated compound formation measured per nmol protein treated with AMG 853 after 15 mins by LC-MS/MS analysis; format: ADME; conditions: recombinant enzyme, 0.25 h
Cytochrome P450 2J2 [9] = target: T1, Cytochrome P450 2J2; assay: Inhibition of recombinant CYP2J2 (unknown origin) treated with AMG 853; format: ADME
Cytochrome P450 2C8 [10] = target: T2, Cytochrome P450 2C8; assay: Inhibition of recombinant CYP2C8 (unknown origin) treated with AMG 853; format: ADME
Cytochrome P450 3A4 [11] = target: T5, Cytochrome P450 3A4 (Homo sapiens, UniProt P08684); assay: Drug metabolism assessed as recombinant CYP3A4 (unknown origin)-mediated compound formation treated with AMG 853 at 10 uM after 30 mins by LC-MS/MS analysis; format: ADME; conditions: recombinant enzyme, 0.5 h
T5 sequence (P08684 whole entry): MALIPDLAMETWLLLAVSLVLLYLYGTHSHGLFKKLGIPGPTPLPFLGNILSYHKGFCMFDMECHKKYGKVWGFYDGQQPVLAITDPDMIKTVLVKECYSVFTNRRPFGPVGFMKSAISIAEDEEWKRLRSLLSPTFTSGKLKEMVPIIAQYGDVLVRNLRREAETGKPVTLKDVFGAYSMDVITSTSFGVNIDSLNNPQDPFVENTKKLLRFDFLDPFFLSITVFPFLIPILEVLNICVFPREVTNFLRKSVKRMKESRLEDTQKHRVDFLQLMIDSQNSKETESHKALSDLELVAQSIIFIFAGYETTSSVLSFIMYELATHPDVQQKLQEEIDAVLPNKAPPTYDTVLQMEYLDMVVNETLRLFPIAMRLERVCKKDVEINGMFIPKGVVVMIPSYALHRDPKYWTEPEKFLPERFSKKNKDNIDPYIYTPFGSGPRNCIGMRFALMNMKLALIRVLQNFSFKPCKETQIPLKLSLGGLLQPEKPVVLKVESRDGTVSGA

Cytochrome P450 3A7 [12] = target: T3, Cytochrome P450 3A7; assay: Drug metabolism assessed as recombinant CYP3A7 (unknown origin)-mediated compound formation treated with AMG 853 at 10 uM after 30 mins by LC-MS/MS analysis; format: ADME; conditions: recombinant enzyme, 0.5 h
Cytochrome P450 2C8 [13] = target: T2, Cytochrome P450 2C8; assay: Drug metabolism assessed as recombinant CYP2C8 (unknown origin)-mediated compound formation treated with AMG 853 at 10 uM after 30 mins by LC-MS/MS analysis; format: ADME; conditions: recombinant enzyme, 0.5 h
Cytochrome P450 3A4 [14] = target: T5, Cytochrome P450 3A4; assay: Drug metabolism assessed as recombinant CYP3A4 (unknown origin)-mediated compound formation measured per nmol protein treated with AMG 853 after 15 mins by LC-MS/MS analysis; format: ADME; conditions: recombinant enzyme, 0.25 h
CYP1A2 = CYP1A2 (Homo sapiens, UniProt P05177); assay: Induction of CYP1A2 in human hepatocytes using phenacetin as substrate at 0.3 to 30 uM treated every 24 hrs for 2 days measured on day 5 by LC-MS/MS analysis relative to control; format: ADME, cell-based, Hepatocyte; conditions: probe phenacetin, read-out: FC
CYP1A2, sequence (P05177 whole entry): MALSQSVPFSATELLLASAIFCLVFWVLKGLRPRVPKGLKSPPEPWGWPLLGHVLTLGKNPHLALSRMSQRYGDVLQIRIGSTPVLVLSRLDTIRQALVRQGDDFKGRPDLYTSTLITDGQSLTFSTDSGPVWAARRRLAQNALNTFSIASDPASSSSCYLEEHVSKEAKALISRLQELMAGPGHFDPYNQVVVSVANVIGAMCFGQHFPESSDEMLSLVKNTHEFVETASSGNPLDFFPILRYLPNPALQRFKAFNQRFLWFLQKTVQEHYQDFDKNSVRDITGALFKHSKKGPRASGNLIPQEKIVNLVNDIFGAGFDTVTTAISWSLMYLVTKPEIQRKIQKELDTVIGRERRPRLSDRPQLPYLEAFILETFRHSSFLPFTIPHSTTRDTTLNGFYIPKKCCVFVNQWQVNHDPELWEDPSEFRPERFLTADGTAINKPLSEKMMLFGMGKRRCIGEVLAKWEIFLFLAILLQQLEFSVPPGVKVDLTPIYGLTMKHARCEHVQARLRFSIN

Cytochrome P450 2C19 = Cytochrome P450 2C19 (Homo sapiens, UniProt P33261); assay: Drug metabolism assessed as recombinant CYP2C19 (unknown origin)-mediated compound formation treated with AMG 853 at 10 uM after 30 mins by LC-MS/MS analysis; format: ADME; conditions: recombinant enzyme, 0.5 h
Cytochrome P450 2C19, sequence (P33261 whole entry): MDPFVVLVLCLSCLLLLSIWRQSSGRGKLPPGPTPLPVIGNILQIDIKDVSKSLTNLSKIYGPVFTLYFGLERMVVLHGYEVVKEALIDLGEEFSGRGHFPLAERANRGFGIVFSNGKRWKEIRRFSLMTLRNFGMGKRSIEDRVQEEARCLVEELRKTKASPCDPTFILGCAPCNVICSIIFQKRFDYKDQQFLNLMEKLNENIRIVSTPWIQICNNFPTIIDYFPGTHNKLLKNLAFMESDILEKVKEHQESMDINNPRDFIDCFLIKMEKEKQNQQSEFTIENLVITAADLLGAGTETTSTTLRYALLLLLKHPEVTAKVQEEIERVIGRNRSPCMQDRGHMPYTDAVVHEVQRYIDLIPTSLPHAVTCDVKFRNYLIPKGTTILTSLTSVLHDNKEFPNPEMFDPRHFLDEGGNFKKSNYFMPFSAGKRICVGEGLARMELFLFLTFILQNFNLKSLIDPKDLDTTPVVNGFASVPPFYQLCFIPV

CYP2B6 = CYP2B6 (Homo sapiens, UniProt P20813); assay: Induction of CYP2B6 in human hepatocytes using bupropion as substrate at 0.3 to 30 uM treated every 24 hrs for 2 days measured on day 5 by LC-MS/MS analysis relative to control; format: ADME, cell-based, Hepatocyte; conditions: probe bupropion, read-out: FC
CYP2B6, sequence (P20813 whole entry): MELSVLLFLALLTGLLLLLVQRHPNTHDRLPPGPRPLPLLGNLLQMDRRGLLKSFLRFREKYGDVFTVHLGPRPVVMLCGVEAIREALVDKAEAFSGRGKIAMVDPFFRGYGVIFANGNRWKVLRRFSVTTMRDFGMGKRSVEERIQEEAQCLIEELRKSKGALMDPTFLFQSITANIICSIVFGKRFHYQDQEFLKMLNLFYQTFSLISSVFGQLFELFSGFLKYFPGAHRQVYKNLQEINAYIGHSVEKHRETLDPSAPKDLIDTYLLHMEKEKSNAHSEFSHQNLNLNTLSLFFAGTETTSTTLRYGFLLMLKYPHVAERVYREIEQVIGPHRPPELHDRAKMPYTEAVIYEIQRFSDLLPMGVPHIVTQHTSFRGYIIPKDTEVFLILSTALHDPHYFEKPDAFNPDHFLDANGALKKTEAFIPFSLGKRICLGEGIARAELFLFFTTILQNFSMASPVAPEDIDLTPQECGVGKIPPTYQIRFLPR

CC(C)(CO)NC(=O)c1ccc(Oc2cc(F)c(CC(=O)O)cc2Cl)c(NS(=O)(=O)c2ccc(C3CC3)cc2Cl)c1
Drug metabolism (Cytochrome P450 2J2 [1]): metabolite_detected | Vmax (Cytochrome P450 2C8 [2]): 0.031 nmol/min | Vmax (Cytochrome P450 3A7 [3]): 0.26 nmol/min | Drug metabolism (Cytochrome P450 3A5 [4]): metabolite_detected | Vmax (Cytochrome P450 3A5 [5]): 0.221 nmol/min | Km [6]: 4.11 µM | Vmax [6]: 0.023 nmol/min/mg | Km [7]: 2.75 µM | Vmax [7]: 0.044 nmol/min/mg | Vmax (Cytochrome P450 2J2 [8]): 0.584 nmol/min | Ki (Cytochrome P450 2J2 [9]): 240 µM | Ki (Cytochrome P450 2C8 [10]): 31.7 µM | Drug metabolism (Cytochrome P450 3A4 [11]): metabolite_detected | Drug metabolism (Cytochrome P450 3A7 [12]): metabolite_detected | Drug metabolism (Cytochrome P450 2C8 [13]): metabolite_detected | Vmax (Cytochrome P450 3A4 [14]): 0.96 nmol/min

COc1ccc2[nH]c([S+]([O-])Cc3ncc(C)c(OC)c3C)nc2c1 (stereo not drawn) [OMEPRAZOLE]
fold induction at 48 h, up to 30 µM (CYP1A2): 47.4

CC(C)(C)NC(=O)c1ccc(Oc2cc(F)c(CC(=O)O)cc2Cl)c(NS(=O)(=O)c2ccc(C3(O)CC3)cc2Cl)c1
Drug metabolism (Cytochrome P450 2J2 [1]): metabolite_detected | Vmax (Cytochrome P450 2C8 [2]): 0.25 nmol/min | Vmax (Cytochrome P450 3A7 [3]): 0.286 nmol/min | Drug metabolism (Cytochrome P450 3A5 [4]): metabolite_detected | Vmax (Cytochrome P450 3A5 [5]): 1.13 nmol/min | Drug metabolism (Cytochrome P450 2C19): metabolite_detected | Km [6]: 35.2 µM | Vmax [6]: 0.296 nmol/min/mg | Km [7]: 38.5 µM | Vmax [7]: 0.317 nmol/min/mg | Vmax (Cytochrome P450 2J2 [8]): 0.299 nmol/min | Drug metabolism (Cytochrome P450 3A4 [11]): metabolite_detected | Drug metabolism (Cytochrome P450 3A7 [12]): metabolite_detected | Drug metabolism (Cytochrome P450 2C8 [13]): metabolite_detected | Vmax (Cytochrome P450 3A4 [14]): 1.41 nmol/min

CCC1(c2ccccc2)C(=O)NC(=O)NC1=O [PHENOBARBITAL]
fold induction at 48 h, up to 30 µM (CYP2B6): 22.1

Source: ChEMBL document CHEMBL3526017, “Predicting the drug interaction potential of AMG 853, a dual antagonist of the D-prostanoid and chemoattractant receptor-homologous molecule expressed on T helper 2 cells receptors” (Drug Metab Dispos, 2012)
